Laboratory results from patent US7807704B2, “Bicyclic, nitrogen-containing compounds modulating CXCR4 and/or CCXCKR2” (Chemocentryx, Inc., priority 2006, dated 2010).

These compounds were tested against T1, CXCR4 (Homo sapiens, UniProt P61073) (assay: chemotaxis assay or 125I SDF-1α binding assay for CXCR4). Conditions: first or only activity listed, read-out: CXCR4 activity (IC50 class).
T1 construct: all endogenously expressing CXCR4; endogenous in cells; host or cells: CEM-Nkr, CCRF-CEM, Jurkat, Molt-4; IL-2 stimulated human lymphocytes
Description: CEM-Nkr, CCRF-CEM (ATCC #CCL-119), Jurkat (ATCC #TIB-152), Molt-4 (ATCC# CRL-1582), cell lines, all endogenously expressing CXCR4, were used in compound screening and subsequent assays. These cell lines were cultured as a suspension in RPMI-1640 medium supplemented with 2 mM L-glutamine, 1.5 g/L sodium bicarbonate, 4.5 g/L glucose, 10 mM HEPES, 1 mM sodium pyruvate, and 10% FBS. Cells were grown under 5% CO2/95% air, 100% humidity at 37° C. and subcultured twice weekly at 1:6 (cells were cultured at a density range of 1×10^5 to 2×10^6 cells/mL) and harvested at 1×10^6 cells/mL. • b) Isolated Human IL-2 Stimulated Lymphocytes
Cells were centrifuged and resuspended in assay buffer (20 mM HEPES pH 7.1, 140 mM NaCl, 1 mM CaCl2, 5 mM MgCl2, and with 0.2% bovine serum albumin) to a concentration of 4×10^6 cells/mL for cell lines. Binding assays were set up as follows. […] Then 0.1 mL of ^125I labeled SDF-1α (obtained from Perkin Elmer Life Sciences, Boston, Mass.) diluted in assay buffer to a final concentration of ˜50 pM, yielding ˜30,000 cpm per well, was added, the plates sealed and incubated for approximately 3 hours at 4° C. on a shaker platform. Reactions were aspirated onto GF/B glass filters pre-soaked in 0.3% polyethyleneimine (PEI) solution, on a vacuum cell harvester (Packard Instruments; Meriden, Conn.). Scintillation fluid (40 μl; Microscint 20, Packard Instruments) was added to each well, the plates were sealed and radioactivity measured in a Topcount scintillation counter (Packard Instruments). Control wells containing either diluent only (for total counts) or excess SDF1 a (1 μg/mL, for non-specific binding) were used to calculate the percent of total inhibition for compound. The computer program Prism from GraphPad, Inc. (San Diego, Calif.) was used to calculate IC50 values. IC50 values are those concentrations required to reduce the binding of radiolabeled SDF-1α to the receptor by 50%. (For further descriptions of ligand binding and other functional assays, see Dairaghi, et al., J. Biol. Chem. 274:21569-21574 (1999), Penfold, et al., Proc. Natl. Acad. Sci. USA. 96:9839-9844 (1999), and Dairaghi, et al., J. Biol. Chem. 272:28206-28209 (1997)).
Chemotaxis assays were performed using 5 μm pore polycarbonate, polyvinylpyrrolidone-coated filters in 96-well chemotaxis chambers (Neuroprobe; Gaithersburg, Md.) using chemotaxis buffer (Hank's balanced salt solution (HBSS) and 1% FBS). CXCR4 ligand (i.e., SDF1a, R&D Systems; Minneapolis, Minn.) are use to evaluate compound mediated inhibition of CXCR4 mediated migration. Other chemokines (i.e., TECK; R&D Systems; Minneapolis, Minn.) are used as specificity controls. The lower chamber was loaded with 29 μl of chemokine (i.e., 0.1 nM SDF1a); the top chamber contained 50,000 Jurkat cells or IL-2 lymphocytes in 20 μl. The chambers were incubated 2 hours at 37° C., and the number of cells in the lower chamber quantified either by direct cell counts in five high powered fields per well or by the CyQuant assay (Molecular Probes), a fluorescent dye method that measures nucleic acid content and microscopic observation.
To evaluate small organic molecules that prevent the CXCR4 from binding ligand, an assay was employed that detected radioactive ligand (i.e, SDF-1) binding to cells expressing CXCR4 on the cell surface (for example, CEM-Nkr cells). For compounds that inhibited binding, whether competitive or not, fewer radioactive counts are observed when compared to uninhibited controls.
Equal numbers of cells were added to each well in the plate. The cells were then incubated with radiolabeled […]. Unbound ligand was removed by washing the cells, and bound ligand was determined by quantifying radioactive counts. Cells that were incubated without any organic compound gave total counts; non-specific binding was determined by incubating the cells with unlabeled ligand and labeled ligand. Percent inhibition was determined by the equation: […]

T1 sequence (P61073 whole entry): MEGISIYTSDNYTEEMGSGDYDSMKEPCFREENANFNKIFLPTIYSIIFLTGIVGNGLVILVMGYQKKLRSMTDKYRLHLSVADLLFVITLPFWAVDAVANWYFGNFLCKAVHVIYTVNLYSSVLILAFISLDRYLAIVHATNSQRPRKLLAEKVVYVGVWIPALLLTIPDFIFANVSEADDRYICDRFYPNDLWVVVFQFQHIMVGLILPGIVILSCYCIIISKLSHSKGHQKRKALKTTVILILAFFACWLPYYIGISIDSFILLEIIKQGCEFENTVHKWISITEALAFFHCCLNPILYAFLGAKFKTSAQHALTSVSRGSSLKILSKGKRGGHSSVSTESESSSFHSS

IC50 [µM]	Compound
< 1	CN(CCCNC(=O)Cn1ccc2cccc(-c3ccc(F)cc3)c21)C1CCCCC1 [No 1]
> 10	CN(CCNC(=O)Cn1ncc2ccccc21)C1CCCCC1 [No 2]
< 1	CC(C)c1ccc(-c2ccc3ccn(CC(=O)NCCN4CCCC5CCCCC54)c3c2)cc1 (centres unmarked) [No 3]
< 1	O=C(Cn1ccc2cccc(-c3ccc(F)cc3)c21)NCCN1CCCC2CCCCC21 (centres unmarked) [No 4]
> 10	CN(CCNC(=O)Cn1ncc2c1CCCC2)C1CCCCC1 [No 6]
1 to 10	CN(CCNC(=O)Cn1cnc2ncccc21)C1CCCCC1 [No 7]
< 1	CN(CCNC(=O)Cn1ccc2cccc([N+](=O)[O-])c21)C1CCCCC1 [No 8]
< 1	Cc1ccc2c(c1)ncn2CC(=O)NCCN(C)C1CCCCC1 [No 9]
1 to 10	CN(CCNC(=O)Cn1cc2ccccc2n1)C1CCCCC1 [No 10]
< 1	Cc1ccc(-c2ccc3ccn(CC(=O)NCCN4CCCCC4)c3c2)cc1 [No 11]
< 1	Cc1ccc(-c2ccc3oc(=O)n(CC(=O)NCCN(C)C4CCCCC4)c3c2)cc1 [No 12]
1 to 10	Cc1ccc(-c2ccc3ccn(CC(=O)NCCNC4CCOC4)c3c2)cc1 (centres unmarked) [No 13]
< 1	Cc1ccc(-c2ccc3cc(C(=O)O)n(CC(=O)NCCN(C)C4CCCCC4)c3c2)cc1 [No 14]
1 to 10	Cc1ccc(-c2ccc3ccn(CC(=O)NC(C)(C)CN4CCCC4)c3c2)cc1 [No 15]
1 to 10	Cc1ccc(-c2ccc3c(C4=CCCC=C4)nn(CC(=O)NCCN(C)C4CCCCC4)c3c2)cc1 [No 16]
< 1	COc1cc(-c2ccc(C)cc2)cc2c1ccn2CC(=O)NCCN(C)C1CCCCC1 [No 17]
< 1	CN(CCNC(=O)Cn1cnc2c(F)c(F)ccc21)C1CCCCC1 [No 18]
> 10	CN(CCNC(=O)Cn1cnc2c1CCOC2)C1CCCCC1 [No 19]
1 to 10	CN(CCNC(=O)Cc1c[nH]c2ccccc12)C1CCCCC1 [No 20]

IC50 [µM]	Compound
1 to 10	CN(CCNC(=O)Cn1nc(Cl)c2ccccc21)C1CCCCC1 [No 21]
< 1	CN(CCNC(=O)Cn1ccc2ccc(-c3ccccc3)cc21)C1CCCCC1 [No 22]
< 1	CN(CCNC(=O)Cn1ccc2ccc(-c3ccc(C(F)(F)F)cc3)cc21)C1CCCCC1 [No 25]
< 1	CN(CCNC(=O)Cn1ccc2ccc(-c3ccc(Cl)cc3)cc21)C1CCCCC1 [No 29]
1 to 10	Cc1ccccc1-c1ccc2ccn(CC(=O)NCCN(C)C3CCCCC3)c2c1 [No 30]
< 1	CN(CCNC(=O)Cn1ccc2ccc(-c3cnc4ccccc4c3)cc21)C1CCCCC1 [No 36]
< 1	CN(CCNC(=O)Cn1ccc2ccc(-c3cc4ccccc4o3)cc21)C1CCCCC1 [No 37]
< 1	CCc1ccc(-c2ccc3ccn(CC(=O)NCCN(C)C4CCCCC4)c3c2)cc1 [No 38]
< 1	Cc1cccc(-c2ccc3ccn(CC(=O)NCCN(C)C4CCCCC4)c3c2)c1 [No 39]
< 1	CN(CCNC(=O)Cn1ccc2ccc(-c3ccncc3)cc21)C1CCCCC1 [No 40]
< 1	Cc1ccc(-c2ccc3c(ccn3CC(=O)NCCN(C)C3CCCCC3)c2)cc1 [No 41]
< 1	CN(CCNC(=O)Cn1ccc2cc(-c3ccc(F)cc3)ccc21)C1CCCCC1 [No 42]
< 1	Cc1ccc(-c2cccc3c2ccn3CC(=O)NCCN(C)C2CCCCC2)cc1 [No 43]
< 1	Cc1ccc(-c2ccc3ccn(CC(=O)NCCN4CCC[C@@H]5CCCC[C@H]54)c3c2)cc1 [No 44]
< 1	C=Cc1ccc(-c2ccc3ccn(CC(=O)NCCN(C)C4CCCCC4)c3c2)cc1 [No 45]
< 1	Cc1ccc(-c2ccc3ccn(CC(=O)NCCN(C)C4CCCCC4)c3c2)cc1C [No 46]
< 1	Cc1ccc(-c2ccc3ccn(CC(=O)NCCN(C)C4CCCCC4)c3c2)c(F)c1 [No 47]
< 1	Cc1ccc(-c2ccc3ccn(CC(=O)NCCN(C)C4CCCCC4)c3c2)cc1F [No 48]
< 1	Cc1ccc(-c2ccc3cnn(CC(=O)NCCN(C)C4CCCCC4)c3c2)cc1 [No 49]
